Measurements taken from ChEMBL document CHEMBL5052852, “Substituted hydantoinamides as adamts7 antagonists” (2021).

Assays:
[1] = Inhibition of recombinant rat/human ADAMTS7 hybrid using HiLyteFluor-488 DELSSMVLELRGLRT-K(QXL520)-E-NH2 as substrate incubated for 120 mins and measured by FRET assay
[2] = Inhibition of recombinant rat/human ADAMTS12 hybrid using HiLyteFluor-488 DELSSMVLELRGLRT-K(QXL520)-E-NH2 as substrate incubated for 120 mins and measured by FRET assay

| Compound | IC50 [1] [nM] | IC50 [2] [nM] |
| --- | --- | --- |
| CC(C)C1(CNC(=O)c2cnn(-c3cccc(C#N)c3)n2)NC(=O)NC1=O (stereo in doubt) | 78 | 2600 |
| Cn1ccnc1C1(CNC(=O)c2cnn(-c3ccc(F)cc3)n2)NC(=O)NC1=O (stereo in doubt) | 2 | 130 |
| CC(C)C1(CNC(=O)c2cnn(-c3ccc(F)c(F)c3)n2)NC(=O)NC1=O (stereo in doubt) | 7 | 910 |
| O=C1NC(=O)C(CNC(=O)c2cnn(-c3ccc(F)cc3)n2)(c2ncsc2C(F)(F)F)N1 (stereo in doubt) | 27 | 3500 |
| CC(C)C1(CNC(=O)c2cnn(-c3ccc(Cl)c(F)c3)n2)NC(=O)NC1=O (stereo in doubt) | 7 | 1000 |
| CC(C)C1(CNC(=O)c2cnn(-c3cccc(F)c3)n2)NC(=O)NC1=O (stereo in doubt) | 13 | 2300 |
| Cn1ccnc1C1(CNC(=O)c2cnn(-c3cc(F)c(F)c(F)c3)n2)NC(=O)NC1=O (stereo in doubt) | 3 | 108 |
| CC1(CNC(=O)c2cnn(-c3ccc(F)cc3)n2)NC(=O)NC1=O (stereo in doubt) | 83 | 8900 |
| CCC(C)C1(CNC(=O)c2cnn(-c3ccc(F)cc3)n2)NC(=O)NC1=O (stereo in doubt; form 1) | 62 | 2900 |
| CC1(C)CC1C1(CNC(=O)c2cnn(-c3ccccc3)n2)NC(=O)NC1=O (stereo in doubt; form 1) | 320 | 13000 |
| O=C1NC(=O)C(CNC(=O)c2cnn(-c3ccccc3)n2)(C2CCCOC2)N1 (stereo in doubt; form 1) | 150 | 4000 |
| CCC(C)C1(CNC(=O)c2cnn(-c3ccc(F)cc3)n2)NC(=O)NC1=O (stereo in doubt; form 2) | 37 | 1000 |
| CC1(C)CC1C1(CNC(=O)c2cnn(-c3ccccc3)n2)NC(=O)NC1=O (stereo in doubt; form 2) | 38 | 2000 |
| O=C1NC(=O)C(CNC(=O)c2cnn(-c3ccccc3)n2)(C2CCCOC2)N1 (stereo in doubt; form 2) | 250 | 6500 |
| O=C1NC(=O)C(CNC(=O)c2cnn(-c3ccc(F)cc3)n2)(c2ccccn2)N1 (stereo in doubt; form 2) | 590 | 50000 |
